Where “and” joins values, the source holds several entries; their conditions need not be identical. Equal entries are not always repeated.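 1) Cells in 96-well plates. 2) Compound, 48 h, 5 concentrations. 3) Linear interpolation between surrounding doses. 4) Unreached endpoint = highest concentration. Here, GI50 denotes the concentration required for 50% inhibition of growth. TGI marks complete inhibition of growth.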 Bounds are passed on as bounds.

Some test systems named below: A549 NSCLC; COLO 205 colon; HCT-15 colon; HOP-92 NSCLC; MOLT-4 leukemia; OVCAR-4 ovarian; OVCAR-5 ovarian; SR leukemia.
Holding throughout (assay): NCI tumour cell line growth inhibition, 48 h

On to `Cc1cnc(C(=O)Nc2nc3ccc(S(=O)(=O)Nc4ccc(C(C)(C)C)cc4)cc3[nH]2)cn1`, for which the GI50 in the assay with A549 NSCLC was 0.652 µM; in the assay with COLO 205 colon, 0.503 µM; in the assay on HCT-15 colon, 0.304 µM; with HOP-92 NSCLC it was 0.553 µM; with MOLT-4 leukemia it was 0.562 µM; with OVCAR-4 ovarian, 1.46 µM. In addition, the GI50 in the assay with OVCAR-5 ovarian is 1.41 µM; in the assay with SR leukemia, 0.133 µM. Besides, the TGI in the assay on A549 NSCLC was determined as 9.14 µM; in the assay on COLO 205 colon, 7.74 µM; with HCT-15 colon it was 3.09 µM; in the assay on HOP-92 NSCLC it was 7.24 µM; with MOLT-4 leukemia it was 5.9 µM; in the assay on OVCAR-4 ovarian it was 17.3 µM. For the same molecule, the values for the TGI with OVCAR-5 ovarian and in the assay on SR leukemia were 10.7 µM and 12.5 µM, respectively.

Take `O=C1OC(c2ccccc2)=N/C1=C\c1ccccc1`: the TGI in the assay with A549 NSCLC is more than 100 µM; in the assay with COLO 205 colon, more than 100 µM; in the assay on HCT-15 colon, more than 100 µM; with HOP-92 NSCLC it was more than 100 µM; with MOLT-4 leukemia, 85.5 µM and > 100 µM; in the assay with OVCAR-4 ovarian, more than 100 µM. The TGI with OVCAR-5 ovarian was more than 100 µM; in the assay with SR leukemia it was 73.4 µM and > 100 µM. Also, the GI50 in the assay with COLO 205 colon is > 100 µM and 37.2 µM; in the assay with HCT-15 colon, > 100 µM and 49 µM.

`COC(=O)[C@]12CC[C@@H](C)[C@H](C)[C@@H]1C1=CC[C@@H]3[C@@]4(C)C[C@@H](OC(C)=O)[C@H](OC(C)=O)[C@@](C)(COC(C)=O)[C@@H]4[C@H](O)C[C@@]3(C)[C@]1(C)CC2`: the GI50 in the assay on A549 NSCLC is 2.06 µM; with COLO 205 colon, 0.513 µM; in the assay on HCT-15 colon, 0.43 µM; with HOP-92 NSCLC it was 3.9 µM; in the assay with MOLT-4 leukemia, 0.901 µM; in the assay with OVCAR-4 ovarian, 3.21 µM. For the same molecule, the GI50 in the assay with OVCAR-5 ovarian was 7.04 µM; in the assay with SR leukemia, 0.465 µM. Moreover, the TGI was more than 100 µM in the assay with A549 NSCLC; 6.25 µM in the assay on COLO 205 colon; more than 100 µM with HCT-15 colon; more than 100 µM with HOP-92 NSCLC; 11.5 µM in the assay on MOLT-4 leukemia; more than 100 µM in the assay on OVCAR-4 ovarian. Also, the TGI in the assay with OVCAR-5 ovarian is more than 100 µM; with SR leukemia, 9.4 µM.

With `CSc1ccc(-c2cn3ccsc3n2)cc1`, the GI50 is 12.9 µM in the assay on A549 NSCLC; 14.4 µM in the assay on COLO 205 colon; 9.76 µM in the assay with HCT-15 colon; 6.81 µM with HOP-92 NSCLC; 5.48 µM with MOLT-4 leukemia; 9.15 µM with OVCAR-4 ovarian. For the same molecule, the GI50 in the assay with OVCAR-5 ovarian was 38.9 µM; in the assay on SR leukemia it was 1.25 µM. Further, the TGI in the assay on A549 NSCLC is more than 100 µM; in the assay on COLO 205 colon it was more than 100 µM; in the assay with HCT-15 colon, more than 100 µM; in the assay on HOP-92 NSCLC it was more than 78.9 µM; with MOLT-4 leukemia it was more than 100 µM; in the assay on OVCAR-4 ovarian it was more than 100 µM. In addition, the TGI in the assay on OVCAR-5 ovarian is more than 100 µM; in the assay on SR leukemia, more than 60.8 µM.

Take `COc1ccc(/C(=C(\c2ccccc2)[N+](=O)[O-])c2ccc(OCCN3CCCC3)cc2)cc1`: the GI50 with A549 NSCLC is 4.68 µM; with COLO 205 colon it was 1.46 µM; in the assay on HCT-15 colon, 1.49 µM; in the assay with HOP-92 NSCLC, 2.25 µM; in the assay on MOLT-4 leukemia, 2.65 µM; in the assay with OVCAR-4 ovarian, 4.66 µM. Besides, the GI50 with OVCAR-5 ovarian was 8.75 µM; with SR leukemia it was 1.49 µM. Further, the TGI in the assay with A549 NSCLC was determined as 17.3 µM; in the assay on COLO 205 colon it was 3.14 µM; in the assay on HCT-15 colon, 4.19 µM; in the assay with HOP-92 NSCLC it was 12 µM; in the assay on MOLT-4 leukemia, 10.5 µM; in the assay on OVCAR-4 ovarian, 16.7 µM. The TGI in the assay with OVCAR-5 ovarian turned out to be 22.9 µM; with SR leukemia, 5.05 µM.

Turning to `O=C(NOCCO)c1ccc2cncn2c1Nc1ccc(I)cc1F`, the GI50 was 0.143 µM and 0.132 µM in the assay with A549 NSCLC; 0.00235 µM and < 0.01 µM in the assay on COLO 205 colon; > 2.24 µM and 1.72 µM in the assay on HCT-15 colon; 0.0147 µM and 0.0103 µM in the assay with HOP-92 NSCLC; > 10 µM and 35.1 µM in the assay with MOLT-4 leukemia; > 10 µM and 4.29 µM with OVCAR-4 ovarian. The GI50 in the assay on OVCAR-5 ovarian was 0.00313 µM and < 0.01 µM; in the assay on SR leukemia, > 10 µM and 19.1 µM. Moreover, the TGI in the assay with A549 NSCLC is more than 100 µM; with COLO 205 colon, 0.803 µM; in the assay on HCT-15 colon, more than 100 µM; with HOP-92 NSCLC it was 0.325 µM and 0.0811 µM; in the assay with MOLT-4 leukemia, more than 100 µM; in the assay with OVCAR-4 ovarian, more than 100 µM. In addition, the TGI with OVCAR-5 ovarian and in the assay with SR leukemia was more than 100 µM throughout.

Turning to `COc1cc(C(=O)/C=C/c2c[nH]c3ccccc23)cc(OC)c1OC`, the GI50 with A549 NSCLC was 0.0339 µM; in the assay with COLO 205 colon it was 0.0192 µM; in the assay on HCT-15 colon, less than 0.0187 µM; in the assay on HOP-92 NSCLC it was 0.0269 µM; in the assay on MOLT-4 leukemia, 0.0473 µM; in the assay on OVCAR-4 ovarian, 0.684 µM. The results for the GI50 with OVCAR-5 ovarian and in the assay with SR leukemia were 0.0728 µM and less than 0.01 µM, respectively. In addition, the TGI in the assay on A549 NSCLC was 24.2 µM; with COLO 205 colon it was 0.132 µM; in the assay with HCT-15 colon, 19.4 µM; in the assay with HOP-92 NSCLC it was 6.46 µM; in the assay with MOLT-4 leukemia, 15.6 µM; with OVCAR-4 ovarian, 43.1 µM. Also, the TGI with OVCAR-5 ovarian was more than 100 µM; with SR leukemia, 13.8 µM.

As for `COc1cc(OC)c(/C=C/S(=O)(=O)Cc2ccc(OC)c(N)n2)c(OC)c1`, the GI50 was less than 0.01 µM in the assay on A549 NSCLC; less than 0.01 µM in the assay on COLO 205 colon; less than 0.01 µM with HCT-15 colon; 0.093 µM in the assay with HOP-92 NSCLC; less than 0.0214 µM in the assay with MOLT-4 leukemia; 0.0272 µM in the assay with OVCAR-4 ovarian. Also, the GI50 with OVCAR-5 ovarian is less than 0.0256 µM; in the assay with SR leukemia, less than 0.01 µM. Moreover, the TGI was more than 100 µM in the assay with A549 NSCLC; less than 0.01 µM in the assay on COLO 205 colon; more than 100 µM with HCT-15 colon; more than 100 µM in the assay on HOP-92 NSCLC; more than 100 µM in the assay on MOLT-4 leukemia; more than 100 µM in the assay on OVCAR-4 ovarian. In addition, the TGI with OVCAR-5 ovarian and in the assay on SR leukemia was more than 100 µM throughout.

`NS(=O)(=O)c1cccc(Nc2cc(-c3ccc(F)cc3)[nH]n2)c1`: the GI50 with A549 NSCLC is more than 24.1 µM; in the assay on COLO 205 colon it was more than 25 µM; in the assay with HCT-15 colon, 19.3 µM; in the assay with HOP-92 NSCLC, more than 25 µM; in the assay on MOLT-4 leukemia, more than 25 µM; in the assay on OVCAR-4 ovarian, more than 22 µM. The results for the GI50 in the assay on OVCAR-5 ovarian and with SR leukemia were more than 25 µM and 12.5 µM, respectively. In addition, the TGI with A549 NSCLC, in the assay with COLO 205 colon, in the assay on HCT-15 colon, with HOP-92 NSCLC, with MOLT-4 leukemia and in the assay with OVCAR-4 ovarian was more than 25 µM throughout. In addition, the TGI in the assay with OVCAR-5 ovarian and in the assay with SR leukemia was more than 25 µM throughout.

Take `CCOC(=O)Nc1cc2c(c(N)n1)N=C(c1ccc(Cl)cc1Cl)CN2`: the TGI in the assay on A549 NSCLC is 19.3 µM; in the assay with COLO 205 colon it was 4.85 µM; with HCT-15 colon, 9.02 µM; in the assay on HOP-92 NSCLC it was 44.7 µM; with MOLT-4 leukemia, more than 100 µM; with OVCAR-4 ovarian it was 39.7 µM. Further, the figures for the TGI in the assay with OVCAR-5 ovarian and with SR leukemia were 45.1 µM and more than 100 µM, respectively.

Consider `N#Cc1cnn(C(=O)c2nn(-c3ccc(Cl)cc3)cc2O)c1N`, for which the GI50 in the assay on A549 NSCLC was 0.201 µM; in the assay with COLO 205 colon, 0.619 µM; in the assay with HCT-15 colon it was 0.338 µM; in the assay with HOP-92 NSCLC, 0.405 µM; with MOLT-4 leukemia, 0.373 µM; in the assay on OVCAR-4 ovarian, 0.456 µM. Moreover, the GI50 was 0.61 µM in the assay on OVCAR-5 ovarian and 0.278 µM with SR leukemia. Further, the TGI came out at 16.5 µM in the assay with A549 NSCLC; 2.13 µM in the assay on COLO 205 colon; 13.1 µM in the assay with HCT-15 colon; 27.3 µM in the assay with HOP-92 NSCLC; 4.06 µM in the assay on MOLT-4 leukemia; 37.4 µM in the assay on OVCAR-4 ovarian. Further, the TGI in the assay with OVCAR-5 ovarian was found to be 21.6 µM; in the assay on SR leukemia it was 0.983 µM.

Regarding `CN(N=O)c1ccc(/C=C/c2ccnc3ccccc23)cc1`, the TGI in the assay with A549 NSCLC, with COLO 205 colon, with HCT-15 colon, in the assay with HOP-92 NSCLC, with MOLT-4 leukemia and in the assay with OVCAR-4 ovarian was more than 100 µM throughout. Besides, the TGI in the assay with OVCAR-5 ovarian and with SR leukemia was more than 100 µM each time.

In the case of `Cc1ccc(C)c(N2CCN(c3ccncc3N)CC2)c1`, the GI50 was 17.5 µM in the assay on A549 NSCLC; 13.8 µM in the assay with COLO 205 colon; 5.61 µM with HCT-15 colon; 12.3 µM with HOP-92 NSCLC; 25.6 µM in the assay on MOLT-4 leukemia; 19.1 µM in the assay with OVCAR-4 ovarian. The GI50 is 22.1 µM in the assay on OVCAR-5 ovarian and 15.6 µM with SR leukemia. The TGI in the assay with A549 NSCLC is more than 100 µM; with COLO 205 colon, 27.1 µM; in the assay on HCT-15 colon, more than 100 µM; with HOP-92 NSCLC it was 46.2 µM; in the assay on MOLT-4 leukemia it was 91.2 µM; with OVCAR-4 ovarian it was more than 100 µM. Also, the TGI is more than 100 µM with OVCAR-5 ovarian and 52.6 µM in the assay on SR leukemia.

`Nc1nc(SCC#CCCl)c2[nH]cnc2n1`: the GI50 with A549 NSCLC was 7.04 µM; in the assay on COLO 205 colon it was 4.4 µM; with HCT-15 colon it was 3.52 µM; in the assay on HOP-92 NSCLC, 2.16 µM; in the assay with MOLT-4 leukemia, 4.11 µM; with OVCAR-4 ovarian it was 4.32 µM. The GI50 was 4.58 µM in the assay with OVCAR-5 ovarian and 3.15 µM in the assay with SR leukemia. Besides, the TGI in the assay with A549 NSCLC is 19.8 µM; in the assay on COLO 205 colon it was 14.9 µM; with HCT-15 colon, 17.7 µM; with HOP-92 NSCLC it was 10.4 µM; in the assay on MOLT-4 leukemia it was 30.2 µM; in the assay with OVCAR-4 ovarian, 67.4 µM. The TGI in the assay with OVCAR-5 ovarian turned out to be 17.7 µM; in the assay with SR leukemia, 18.9 µM.

As to `COc1ccc2c(Cl)cc(NC(=S)Nc3ccccc3)nc2c1`, the TGI in the assay on A549 NSCLC was more than 100 µM; in the assay on COLO 205 colon it was more than 100 µM; in the assay on HCT-15 colon, more than 100 µM; in the assay with HOP-92 NSCLC, 49.4 µM; in the assay on MOLT-4 leukemia, 72.2 µM; with OVCAR-4 ovarian it was more than 100 µM. The TGI came out at 99.6 µM with OVCAR-5 ovarian and 74.5 µM in the assay on SR leukemia.

(Values after PubChem BioAssay (NCI).)
